Results reported in US11731942B1, “3-substituted quinolin-2-one compounds as antibacterial agents” (KING FAISAL UNIVERSITY, priority 2023, dated 2023).
In brackets after ≈: the same amount, converted by molar mass. Where two headings read alike, the source gives them in different places.

Tests used:
[1] = tested on: Pseudomonas aeruginosa MTCC 741; assay: In vitro antibacterial activity (CLSI M07-A10 dilution), MIC; type: cell-based; details: MTCC741
[2] = tested on: Klebsiella pneumonia MTCC 618; assay: as above; type: cell-based; details: Klebsiella pneumoniae, MTCC618
[3] = tested on: H37Rv type of M. tuberculosis strains; assay: Anti-tubercular alamar blue microplate MIC; type: cell-based; details: 168 h, mycobacterium tuberculosis H37Rv strain, 7 days at 37° C., read-out: anti-mycobacterial activity (MIC)
E. coli DNA Gyrase = target: T1, E. coli DNA Gyrase (Escherichia coli, UniProt P0AES4+P0AES6); assay: Inspiralis DNA gyrase inhibition assay; type: biochemical
T1 construct: purchased Inspiralis
Procedure: Inhibitory potencies were investigated utilizing the Inspiralis assay on streptavidin-coated 96-well microtiter plates. First, the plates were rehydrated with buffer (20 mM Tris-HCl with pH 7.6, 0.01% w/v BSA, 0.05% v/v Tween 20, 137 mM NaCl) and the biotinylated oligonucleotide was then immobilized. After washing off the unbound oligonucleotide, the enzyme test was performed. The reaction volume of 30 μL in buffer (35 mM Tris×HCl with pH 7.5, 4 mM MgCl2, 24 mM KCl, 2 mM DTT, 1.8 mM spermidine, 1 mM ATP, 6.5% w/v glycerol, 0.1 mg/mL albumin) contained 1.5 U of DNA gyrase from E. coli, 0.75 μg of relaxed pNO1 plasmid, and 3 μL solution of the inhibitor in 10% DMSO and 0.008% Tween 20. Reaction solutions were incubated at 37° C. for 30 min. After that, the TF buffer (50 mM NaOAc with pH 5.0, 50 mM NaCl and 50 mM MgCl2) was added to terminate the enzymatic reaction. After additional incubation for 30 min at rt, during which biotinoligonucleotide-plasmid triplex was formed, the unbound plasmid was washed off using TF buffer and SybrGOLD in T10 buffer (10 mM Tris HCl with pH 8.0 and 1 mM EDTA) was added. The fluorescence was measured with a microplate reader (BioTek Synergy H4, excitation: 485 nm, emission: 535 nm). Initial screening was done at 100 or 10 μM concentration of inhibitors. […] GraphPad Prism software was used to calculate the IC50 values. […]

[4] = tested on: Escherichia coli MTCC 443; assay: In vitro antibacterial activity (CLSI M07-A10 dilution), MIC; type: cell-based; details: MTCC443
[5] = tested on: Staphylococcus epidermidis; assay: as above; type: cell-based
[6] = tested on: Bacillus subtilis MTCC 441; assay: as above; type: cell-based; details: MTCC441
[7] = tested on: Staphylococcus aureus ATCC BAA-1556 (MERSA resistant); assay: as above; type: cell-based; details: ATCCBAA1556
[8] = tested on: Enterococcus faecium ATCC 35667; assay: as above; type: cell-based; details: ATCC35667
[9] = tested on: Staphylococcus aureus ATCC 29213; assay: as above; type: cell-based; details: ATCC29213
[10] = tested on: Enterococcus faecium ATCC 51559 (VRE resistant); assay: as above; type: cell-based

T1 sequence (P0AES4 whole entry, one chain of several): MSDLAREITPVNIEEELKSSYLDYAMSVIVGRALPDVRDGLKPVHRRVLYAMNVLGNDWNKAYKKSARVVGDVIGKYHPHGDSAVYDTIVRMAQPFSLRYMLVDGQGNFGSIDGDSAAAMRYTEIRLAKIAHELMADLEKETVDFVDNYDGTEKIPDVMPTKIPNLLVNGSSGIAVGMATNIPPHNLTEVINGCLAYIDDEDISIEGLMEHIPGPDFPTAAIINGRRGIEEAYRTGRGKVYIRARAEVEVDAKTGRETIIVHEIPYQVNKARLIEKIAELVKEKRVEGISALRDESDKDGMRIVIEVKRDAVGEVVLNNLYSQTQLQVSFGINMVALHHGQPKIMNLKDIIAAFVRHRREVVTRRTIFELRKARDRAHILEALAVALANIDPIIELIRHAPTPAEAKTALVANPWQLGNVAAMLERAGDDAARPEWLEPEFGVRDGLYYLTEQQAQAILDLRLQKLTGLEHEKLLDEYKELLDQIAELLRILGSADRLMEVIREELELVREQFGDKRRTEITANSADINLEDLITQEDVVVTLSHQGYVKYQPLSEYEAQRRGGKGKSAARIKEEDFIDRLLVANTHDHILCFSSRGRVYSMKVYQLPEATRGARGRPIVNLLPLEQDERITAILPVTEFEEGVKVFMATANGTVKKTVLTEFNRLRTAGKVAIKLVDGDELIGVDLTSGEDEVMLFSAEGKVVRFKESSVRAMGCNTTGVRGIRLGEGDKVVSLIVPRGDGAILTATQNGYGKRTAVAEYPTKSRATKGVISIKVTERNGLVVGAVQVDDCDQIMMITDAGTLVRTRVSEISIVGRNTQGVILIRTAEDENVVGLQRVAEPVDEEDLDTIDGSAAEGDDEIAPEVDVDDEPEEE

Compound	MIC ([1]; Pseudomonas aeruginosa MTCC 741, read-out: MIC) [µg/mL]	MIC ([2]; Klebsiella pneumonia MTCC 618, read-out: MIC) [µg/mL]	MIC [3] [µg/mL]	IC50 (E. coli DNA Gyrase) [nM]	MIC ([4]; Escherichia coli MTCC 443, read-out: MIC) [µg/mL]	MIC ([5]; read-out: MIC) [µg/mL]	MIC ([6]; Bacillus subtilis MTCC 441, read-out: MIC) [µg/mL]	MIC ([7]; Staphylococcus aureus ATCC BAA-1556 (MERSA resistant), read-out: MIC) [µg/mL]	MIC ([8]; Enterococcus faecium ATCC 35667, read-out: MIC) [µg/mL]	MIC ([9]; Staphylococcus aureus ATCC 29213, read-out: MIC) [µg/mL]	MIC ([10]; Enterococcus faecium ATCC 51559 (VRE resistant), read-out: MIC) [µg/mL]	MIC ([1]; Pseudomonas aeruginosa) [µg/mL]	MIC [2] [µg/mL]	MIC ([4]; Escherichia coli) [µg/mL]	MIC [5] [µg/mL]	MIC ([6]; Bacillus subtilis) [µg/mL]	MIC ([7]; Staphylococcus aureus) [µg/mL]	MIC ([8]; Enterococcus faecium) [µg/mL]	MIC ([9]; Staphylococcus aureus) [µg/mL]	MIC ([10]; Enterococcus faecium) [µg/mL]
CCCCCN(C)Cc1cc(C(=O)O)ccc1/C=C/C(=O)c1cc2cc(F)cc(NC)c2[nH]c1=O [Compound 7, (E)-4-(3-(6-fluoro-8-(methylamino)-2-oxo-1,2-dihydroquinolin-3-yl)-3-oxoprop-1-en-1-yl)-3-((methyl(pentyl)amino)methyl)benzoic acid]	0.25 (≈ 0.521 µM)	0.5 (≈ 1.04 µM)	4 (≈ 8.34 µM)	12	1 (≈ 2.09 µM)	0.5 (≈ 1.04 µM)	0.25 (≈ 0.521 µM)	0.5 (≈ 1.04 µM)	0.25 (≈ 0.521 µM)	0.5 (≈ 1.04 µM)	0.25 (≈ 0.521 µM)	–	–	–	–	–	–	–	–	–
CN[C@H](CC(C)C)C(=O)N[C@H]1C(=O)N[C@@H](CC(N)=O)C(=O)N[C@H]2C(=O)N[C@H]3C(=O)N[C@H](C(=O)N[C@H](C(=O)O)c4cc(O)cc(O)c4-c4cc3ccc4O)[C@H](O)c3ccc(c(Cl)c3)Oc3cc2cc(c3O[C@@H]2O[C@H](CO)[C@@H](O)[C@H](O)[C@H]2O[C@H]2C[C@](C)(N)[C@H](O)[C@H](C)O2)Oc2ccc(cc2Cl)[C@H]1O [Vancomycin, reference compound]	–	–	–	–	–	–	–	–	–	–	–	> 128	> 128	> 128	1 (≈ 0.69 µM)	0.5 (≈ 0.345 µM)	1 (≈ 0.69 µM)	0.5 (≈ 0.345 µM)	1 (≈ 0.69 µM)	> 128
